We go through 8 compounds from US6486193B2, “3-substituted pyrrolidines useful as inhibitors of matrix metalloproteinases” (Aventis Pharmaceuticals Inc., priority 1998, dated 2002).

pKi: −log10 of the molar value. Where only a bound is given, the exact number is not on record here.

One assay addresses T1, MMP-2 (Homo sapiens, UniProt P08253).
T1 construct: made in house; host or cells: Pichia pastoris (vector pHIL-D2; strains KM71 and SMD1168; clone 24S)
T1 sequence (P08253 110-660): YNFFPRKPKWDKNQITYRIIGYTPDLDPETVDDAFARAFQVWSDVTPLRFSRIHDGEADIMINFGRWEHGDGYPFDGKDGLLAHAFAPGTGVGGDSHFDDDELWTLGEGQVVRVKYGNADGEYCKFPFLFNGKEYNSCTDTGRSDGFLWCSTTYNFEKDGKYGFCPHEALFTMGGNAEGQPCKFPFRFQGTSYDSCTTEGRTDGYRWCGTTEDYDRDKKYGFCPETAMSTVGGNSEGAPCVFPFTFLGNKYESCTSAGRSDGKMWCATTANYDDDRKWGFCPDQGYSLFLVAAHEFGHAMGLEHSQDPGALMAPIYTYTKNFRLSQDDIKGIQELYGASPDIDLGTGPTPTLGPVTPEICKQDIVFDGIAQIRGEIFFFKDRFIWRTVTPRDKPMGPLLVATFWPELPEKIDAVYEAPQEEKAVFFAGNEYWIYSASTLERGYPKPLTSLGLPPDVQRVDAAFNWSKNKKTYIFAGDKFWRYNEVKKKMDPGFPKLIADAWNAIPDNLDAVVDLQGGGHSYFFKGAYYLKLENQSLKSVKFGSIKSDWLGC
As to the kind of experiment: Determination of inhibition constant (Ki) for MMP-2, fluorogenic substrate. It counts as biochemical. Conditions: footnote: results are identical for MMP-1, MMP-2, MMP-3, MMP-13 and MMP-14, read-out: MMP Ki app. The source says: Recombinant MMP-2 was purified from the fermentation broth of yeast Pichia pastoris that carries the integrated MMP-2 gene into its chromosome. In brief, the full-length cDNA for MMP-2 was obtained by reverse transcription of RNA from human melanoma A375M cell line by the reverse transcriptase polymerase chain reaction (RT-PCR) using sequence specific oligonucleotides. The nucleotide sequence was confirmed by Taq cycle sequencing. The cDNA was ligated into the Pichia pastoris expression vector pHIL-D2 in such a way that the expression of pro-MMP-2 is under the control of the methanol inducible alcohol oxidase promoter. The expression construct was digested with either SalI or NsiI and used to transform the Pichia pastoris strains KM71 and SMD1 168. A large-scale culture of a selected clone designated 24S was performed in a high cell density fermentor and the recombinant MMP-2 was purified from the culture supernatant by gelatin-sepharose 4B (Pharmacia). The enzyme is sufficiently pure at this stage for routine measurement of inhibition. If desired, however, the enzyme may be further purified by AcA 44 gel filtration (Spectra).
The active MMP-2 was obtained by activation of proMMP-2 at 37° C. for 1 h with 4-aminophenylmercuric acetate which was then removed by a Sephadex G-50 spin column. The enzyme is assayed using a fluorogenic substrate, Mca-Pro-Leu-Gly-Leu-Dpa-Ala-Arg-NH2, at 37° C. in 2.0 mL of assay buffer containing 50 mM Tris, pH 7.6, 0.2 M sodium chloride, 50 mM calcium chloride, 0.02% Brij-35, and 50 μM β-mercaptoethanol. The increase in fluorescence is monitored (λex 328 nm, λem 393 nm). Substrate and inhibitor stock solutions are made in DMF. The enzyme is added at the last to start the reaction. For routine measurement of a Ki value for a reversible, competitive inhibitor, the initial rates in the presence of at least four inhibitor concentrations (two inhibitor concentrations above Ki and two below Ki) are measured using [S]=1 μM (<<Km) and [MMP-2]=0.4 nM. Under these conditions, the measured Ki, app is close to true Ki.

In a further assay the target is T2, MMP-1 (Homo sapiens, UniProt P03956).
T2 construct: The active MMP-1 was obtained by treatment of proMMP-1 with trypsin; endogenous in cells; host or cells: human rheumatoid synovial fibroblasts stimulated with macrophage-conditioned medium (secreted proenzyme purified from the medium)
T2 sequence (P03956 100-469): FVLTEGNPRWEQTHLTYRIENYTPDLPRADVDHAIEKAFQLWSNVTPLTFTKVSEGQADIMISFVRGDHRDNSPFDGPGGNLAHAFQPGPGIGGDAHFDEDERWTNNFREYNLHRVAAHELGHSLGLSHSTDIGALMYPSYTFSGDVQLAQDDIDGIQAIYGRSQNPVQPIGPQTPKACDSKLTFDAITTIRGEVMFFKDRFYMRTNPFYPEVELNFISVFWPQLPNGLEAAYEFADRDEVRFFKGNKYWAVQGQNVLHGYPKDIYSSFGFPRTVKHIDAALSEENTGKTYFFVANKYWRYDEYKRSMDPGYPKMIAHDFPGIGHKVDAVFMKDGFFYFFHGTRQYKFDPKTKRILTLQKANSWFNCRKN
As to the kind of experiment: Determination of inhibition constant (Ki) for MMP-1, fluorogenic substrate. The conditions noted are these: footnote: results are identical for MMP-1, MMP-2, MMP-3, MMP-13 and MMP-14, read-out: MMP Ki app. It counts as biochemical. How it is done:
ProMMP-1 (EC 3.4.24.7; interstitial collagenase) was purified from culture medium of human rheumatoid synovial fibroblasts stimulated with macrophage-conditioned medium according to Okada, Y. et al., J. Biol. Chem. 261, 14245-14255 (1986). The active MMP-1 was obtained by treatment of proMMP-1 with trypsin (5 μg/mL) at 37° C. for 30 minutes, followed by addition of soybean trypsin inhibitor (50 μg/mL).
Determination of Inhibition Constant (Ki) for MMP-1 The activated MMP-1 is assayed using a fluorogenic substrate, Mca-Pro-Leu-Gly-Leu-Dpa-Ala-Arg-NH2, Knight, C. G. et al., FEBS Lett. 296, 263-266 (1992), at 37° C. in 2.0 mL of assay buffer containing 50 mM Tris, pH 7.6, 0.2 M sodium chloride, 50 mM calcium chloride, and 0.02% Brij-35. The increase in fluorescence due to cleavage of Gly-Leu peptide bond by MMP-3 was monitored with Perkin-Elmer LS50B Fluorimeter (λex328 nm, λem 393 nm, excitation slit 2.5, emission slit 10). Substrate and inhibitor stock solutions were made in DMF. For determination of Ki values for MMP-1 inhibitors, a series of intermediate inhibitor solutions were prepared in DMF and 1 or 2 μL of the diluted inhibitor solution was mixed with 1 μL of 2 mM substrate solution in DMF in a quartz cuvette containing 2 mL of assay buffer. The enzyme (10 μL of 0.2 μM MMP-3 dilution in assay buffer) was added at the last to start the reaction. For routine measurement of a Ki value for a reversible, competitive inhibitor, the initial rates in the presence of at least four inhibitor concentrations (two concentrations above Ki and two concentrations below Ki) were measured using [S]=1 μM (<<Km) and [MMP-1]=0.8 nM. Under these conditions, the measured Ki app is close to true Ki.
The Ki for a competitive inhibitor is calculated using: v0/vi=(1+[I]/Ki, app) and Ki=Ki, app/(1+[S]/Km), where v0 is the initial rate in the absence of inhibitor, vi is the initial rate in the presence of inhibitor at the concentration of [I], [S] is the substrate concentration, and Km is the Michaelis constant. If slow binding is observed (i.e. if the approach to the binding equilibrium is slow), the final steady-state rate rather than the initial rate is taken as vi.

As to `CNC(=O)[C@@H](Cc1cccnc1)NC(=O)[C@@H]1C(Cc2ccccc2)CCN1C(=O)[C@@H](S)C(C)C` (stereo in doubt) [Compound 1f, (2S,3S)-3-Benzyl-1-((S)-2-mercapto-3-methyl-butanoyl)-pyrrolidine-2-carboxylic acid ((R)-1-methylcarbamoyl-2-pyridin-3-yl-ethyl)-amide], the pKi on MMP-2 and at MMP-1 was below 5.00 throughout.

For `CNC(=O)[C@H](Cc1ccc(O)cc1)NC(=O)[C@@H]1[C@@H](Cc2ccccc2)CCN1C(=O)[C@@H](S)C(C)C` [Compound 1a, (2S,3S)-3-Benzyl-1-((S)-2-mercapto-3-methyl-butanoyl)-pyrrolidine-2-carboxylic acid [(S)-2-(4-hydroxy-phenyl)-1-methylcarbamoyl-ethyl]-amide], the negative-log Ki (pKi) on MMP-2 and on MMP-1 was below 5.00 in each case.

For the compound `CNC(=O)[C@H](Cc1ccc(O)cc1)NC(=O)[C@@H]1[C@H](Cc2ccccc2)CCN1C(=O)[C@@H](S)C(C)C` [Compound 1b, (2S,3R)-3-Benzyl-1-((S)-2-mercapto-3-methyl-butanoyl)-pyrrolidine-2-carboxylic acid [(S)-2-(4-hydroxy-phenyl)-1-methylcarbamoyl-ethyl]-amide], the pKi on MMP-2 and at MMP-1 was below 5.00 in each case.

For the compound `CNC(=O)[C@H](Cc1cccnc1)NC(=O)[C@@H]1[C@@H](Cc2ccccc2)CCN1C(=O)[C@@H](S)C(C)C` [Compound 1c, (2S,3S)-3-Benzyl-1-((S)-2-mercapto-3-methyl-butanoyl)-pyrrolidine-2-carboxylic acid ((S)-1-methylcarbamoyl-2-pyridin-3-yl-ethyl)-amide], the pKi on MMP-2 and at MMP-1 was below 5.00 in each case.

Take `CNC(=O)[C@H](Cc1cccnc1)NC(=O)[C@@H]1[C@H](Cc2ccccc2)CCN1C(=O)[C@@H](S)C(C)C` [Compound 1d, (2S,3R)-3-Benzyl-1-((S)-2-mercapto-3-methyl-butanoyl)-pyrrolidine-2-carboxylic acid ((S)-1-methylcarbamoyl-2-pyridin-3-yl-ethyl)-amide]: the pKi on MMP-2 and at MMP-1 was below 5.00 each time.

Regarding `CNC(=O)[C@@H](Cc1cccnc1)NC(=O)[C@@H]1[C@@H](Cc2ccccc2)CCN1C(=O)[C@@H](S)C(C)C` [Compound 1e, (2S,3S)-3-Benzyl-1-((S)-2-mercapto-3-methyl-butanoyl)-pyrrolidine-2-carboxylic acid ((R)-1-methylcarbamoyl-2-pyridin-3-yl-ethyl)-amide], the negative logarithm of the Ki (pKi) at MMP-2 and at MMP-1 was below 5.00 throughout.

Turning to `CNC(=O)[C@@H](NC(=O)[C@@H]1[C@@H](Cc2ccccc2)CCN1C(=O)[C@@H](S)C(C)C)C(C)(C)C` [Compound 1g, (2S,3S)-3-Benzyl-1-((S)-2-mercapto-3-methyl-butanoyl)-pyrrolidine-2-carboxylic acid ((S)-2,2-dimethyl-1-methylcarbamoyl-propyl)-amide], the negative-log Ki (pKi) on MMP-2 and on MMP-1 was below 5.00 each time.

For the compound `CNC(=O)[C@@H](NC(=O)[C@@H]1[C@H](Cc2ccccc2)CCN1C(=O)[C@@H](S)C(C)C)C(C)(C)C` [Compound 1h, (2S,3R)-3-Benzyl-1-((S)-2-mercapto-3-methyl-butanoyl)-pyrrolidine-2-carboxylic acid ((S)-2,2-dimethyl-1-methylcarbamoyl-propyl)-amide], the pKi on MMP-2 and on MMP-1 was below 5.00 each time.

The term pKi denotes −log10 of the Ki, conventionally taken in molar units.
